This note sets out measurements from patent publication US8106055B2, “Substituted amide compounds” (Gruenenthal GmbH, priority 2007, dated 2012).

Experiment [1] deals with T1, human bradykinin 1 receptor (B1R) (Homo sapiens, UniProt P46663).
T1 construct: expressed in transfected cells; host or cells: CHO K1 cells
T1 sequence (P46663 1-353): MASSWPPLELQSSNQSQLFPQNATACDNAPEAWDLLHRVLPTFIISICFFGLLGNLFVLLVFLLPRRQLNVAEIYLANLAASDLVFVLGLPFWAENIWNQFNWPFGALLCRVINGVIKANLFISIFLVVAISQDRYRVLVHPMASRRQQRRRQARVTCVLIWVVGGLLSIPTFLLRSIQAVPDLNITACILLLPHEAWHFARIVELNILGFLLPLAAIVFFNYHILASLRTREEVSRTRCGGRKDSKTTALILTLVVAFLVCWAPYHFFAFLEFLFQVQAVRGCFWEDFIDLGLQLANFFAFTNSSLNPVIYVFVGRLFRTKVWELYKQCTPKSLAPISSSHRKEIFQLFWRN
In words: Functional investigation on the human bradykinin 1 receptor (B1R), Ca2+ FLIPR assay in CHO K1 hB1R cells. It counts as cell-based. Particulars: test substance 10 μM, Ca2+ FLIPR, CHO K1 hB1R cells; for inhibition at 10 µM: CHO-K1, B1R antagonism human, read-out: B1R Ant. h [10 μM] % Inhibition; for B1R Ant. h [10 μM] % Inhibition: B1R antagonism human. In short, it runs like this:
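Peak Ca2+-dependent fluorescence in B1R-transfected CHO K1 cells measures antagonism of an EC80 agonist challenge given 10-20 min after compound. Agonist is Lys-Des-Arg9-bradykinin for human, Des-Arg9-bradykinin for rat receptor.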

For experiment [2], the target named is T2, serotonin (5-HT) reuptake (Rattus norvegicus, UniProt P31652).
T2 construct: synaptosomes are freshly isolated from areas of the rat brain; from tissue; host or cells: rat brain synaptosomes (P2 fraction)
T2 sequence (P31652 whole entry): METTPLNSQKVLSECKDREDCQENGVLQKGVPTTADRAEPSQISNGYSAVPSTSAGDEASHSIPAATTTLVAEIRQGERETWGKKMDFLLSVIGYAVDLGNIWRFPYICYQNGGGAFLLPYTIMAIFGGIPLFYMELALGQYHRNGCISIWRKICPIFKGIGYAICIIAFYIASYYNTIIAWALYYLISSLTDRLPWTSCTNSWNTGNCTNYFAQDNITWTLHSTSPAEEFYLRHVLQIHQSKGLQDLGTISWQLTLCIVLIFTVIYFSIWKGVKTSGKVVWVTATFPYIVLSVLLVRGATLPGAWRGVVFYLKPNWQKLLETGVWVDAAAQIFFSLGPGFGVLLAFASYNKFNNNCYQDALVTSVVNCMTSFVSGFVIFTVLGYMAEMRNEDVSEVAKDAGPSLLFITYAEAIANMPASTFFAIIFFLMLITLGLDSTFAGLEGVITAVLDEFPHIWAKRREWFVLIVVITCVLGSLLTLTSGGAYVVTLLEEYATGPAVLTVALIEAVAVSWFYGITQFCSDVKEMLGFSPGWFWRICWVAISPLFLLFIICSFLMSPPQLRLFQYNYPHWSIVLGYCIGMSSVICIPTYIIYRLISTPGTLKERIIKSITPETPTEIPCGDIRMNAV
The experiment in a line: Inhibition of serotonin (5HT) reuptake in synaptosomes from rat brain. It counts as biochemical. Particulars: test concentration of 10 μM; for inhibition at 10 µM: read-out: 5-HT (inhibition of reuptake of serotonin, % inhibition). In short, it runs like this:
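Compounds screened at 10 μM and reported as percent inhibition of serotonin uptake. Uptake measured in a freshly prepared P2 synaptosomal fraction from rat brain.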

Turning to `CN(C)C(c1cccs1)C1CCC(CCNC(=O)COCC2CCCN(S(=O)(=O)c3ccccc3)C2)CC1` (stereo not drawn) [Example 115, N-(2-(4-((dimethylamino)(thiophen-2-yl)methyl)cyclohexyl)ethyl)-2-((1-(phenylsulfonyl)piperidin-3-yl)methoxy)acetamide], the figures for the inhibition at 10 µM in experiment [1] and in experiment [2] were 10% and 97%, respectively.
Turning to `CN(C)C(c1cccs1)C1CCC(CCNC(=O)COCCN(Cc2ccccc2)S(=O)(=O)c2ccccc2)CC1` (stereo not drawn) [Example 116, 2-(2-(N-benzylphenylsulfonamido)ethoxy)-N-(2-(4-((dimethylamino)(thiophen-2-yl)methyl)cyclohexyl)ethyl)acetamide], the inhibition at 10 µM was found to be 28% in experiment [1] and 97% in experiment [2].
Take `CCN(CCOCC(=O)NCC1CCC(C(c2cccc(F)c2)N(C)C)CC1)S(=O)(=O)c1c(C)cc(OC)c(C)c1C` (stereo not drawn) [Example 117, N-((4-((dimethylamino)(3-fluorophenyl)methyl)cyclohexyl)methyl)-2-(2-(N-ethyl-4-methoxy-2,3,6-trimethylphenylsulfonamido)ethoxy)acetamide]: the inhibition at 10 µM came out at 76% in experiment [1] and 94% in experiment [2].
`COc1cc(C)c(S(=O)(=O)N2CCC(CCOCC(=O)NC3CCC(C(c4cccc(F)c4)N(C)C)CC3)CC2)c(C)c1C` (stereo not drawn) [Example 118, N-(4-((dimethylamino)(3-fluorophenyl)methyl)cyclohexyl)-2-(2-(1-(4-methoxy-2,3,6-trimethylphenylsulfonyl)piperidin-4-yl)ethoxy)acetamide]: the inhibition at 10 µM was 23% in experiment [1] and 92% in experiment [2].
The matching figures for `CN(C)C(c1cccc(F)c1)C1CCC(CNC(=O)COCC2CCCN2S(=O)(=O)c2ccc(Cl)c(Cl)c2)CC1` (stereo not drawn) [Example 119, 2-((1-(3,4-dichlorophenylsulfonyl)pyrrolidin-2-yl)methoxy)-N-((4-((dimethylamino)(3-fluorophenyl)methyl)cyclohexyl)methyl)acetamide]: 67% and 96%.
The matching figures for `COc1ccc(S(=O)(=O)N2CCCCC2COCC(=O)NCCC2CCC(C(c3cccs3)N(C)C)CC2)cc1OC` (stereo not drawn) [Example 120, 2-((1-(3,4-dimethoxyphenylsulfonyl)piperidin-2-yl)methoxy)-N-(2-(4-((dimethylamino)(thiophen-2-yl)methyl)cyclohexyl)ethyl)acetamide]: -12% and 91%.
The matching figures for `Cc1ccc(S(=O)(=O)N2CCC(OCC(=O)NCC3CCC(C(c4ccccc4)N(C)C)CC3)C2)cc1` (stereo not drawn) [Example 125, N-((4-((dimethylamino)(phenyl)methyl)cyclohexyl)methyl)-2-(1-tosylpyrrolidin-3-yloxy)acetamide]: 26% and 91%.
Take `CN(C)C(c1cccc(F)c1)C1CCC(CCNC(=O)COCCN(C)S(=O)(=O)c2ccc(Cl)cc2Cl)CC1` (stereo not drawn) [Example 126, 2-(2-(2,4-dichloro-N-methylphenylsulfonamido)ethoxy)-N-(2-(4-((dimethylamino)(3-fluorophenyl)methyl)cyclohexyl)ethyl)acetamide]: the inhibition at 10 µM in experiment [1] was found to be 103%; in experiment [2] it was 86%.
As to `COc1ccc(S(=O)(=O)N(C)CCOCC(=O)NCC2CCC(C(c3cccs3)N(C)C)CC2)cc1OC` (stereo not drawn) [Example 127, 2-(2-(3,4-Dimethoxy-N-methylphenylsulfonamido)ethoxy)-N-((4-((dimethylamino)(thiophen-2-yl)methyl)cyclohexyl)methyl)acetamide], the results for the inhibition at 10 µM in experiment [1] and in experiment [2] were -13% and 79%, respectively.
For `COc1ccc(S(=O)(=O)N(C)CCOCC(=O)NCCC2CCC(C(c3cccs3)N(C)C)CC2)cc1` (stereo not drawn) [Example 128, N-(2-(4-((dimethylamino)(thiophen-2-yl)methyl)cyclohexyl)ethyl)-2-(2-(4-methoxy-N-methylphenylsulfonamido)ethoxy)acetamide], the inhibition at 10 µM stood at 28% in experiment [1] and 83% in experiment [2].
`COc1cc(C)c(S(=O)(=O)N2CCCC(OCC(=O)NCCC3CCC(C(c4cccs4)N(C)C)CC3)C2)c(C)c1C` (stereo not drawn) [Example 130, N-(2-(4-((dimethylamino)(thiophen-2-yl)methyl)cyclohexyl)ethyl)-2-(1-(4-methoxy-2,3,6-trimethylphenylsulfonyl)piperidin-3-yloxy)acetamide]: the inhibition at 10 µM in experiment [1] was 30%; in experiment [2] it was 95%.
Take `COc1cc(C)c(S(=O)(=O)N2CCC(CCOCC(=O)NCC3CCC(C(c4cccs4)N(C)C)CC3)CC2)c(C)c1C` (stereo not drawn) [Example 131, N-((4-((dimethylamino)(thiophen-2-yl)methyl)cyclohexyl)methyl)-2-(2-(1-(4-methoxy-2,3,6-trimethylphenylsulfonyl)piperidin-4-yl)ethoxy)acetamide]: the values for the inhibition at 10 µM in experiment [1] and in experiment [2] were 15% and 91%, respectively.
For `CN(C)C(c1cccc(F)c1)C1CCC(NC(=O)COC2CCCCC2N(C)S(=O)(=O)c2ccc(Cl)c(Cl)c2)CC1` (stereo not drawn) [Example 132, 2-(2-(3,4-dichloro-N-methylphenylsulfonamido)cyclohexyloxy)-N-(4-((dimethylamino)(3-fluorophenyl)methyl)cyclohexyl)acetamide], the results for the inhibition at 10 µM in experiment [1] and in experiment [2] were 40% and 83%, respectively.
On to `COc1ccc(S(=O)(=O)N2CCCCC2COCC(=O)NCC2CCC(C(c3cccs3)N(C)C)CC2)cc1OC` (stereo not drawn) [Example 133, 2-((1-(3,4-Dimethoxyphenylsulfonyl)piperidin-2-yl)methoxy)-N-((4-((dimethylamino)(thiophen-2-yl)methyl)cyclohexyl)methyl)acetamide], for which the inhibition at 10 µM was -23% in experiment [1] and 88% in experiment [2].
As to `CN(C)C(c1ccccc1)C1CCC(NC(=O)COCCN(C)S(=O)(=O)c2c(Cl)cccc2Cl)CC1` (stereo not drawn) [Example 135, 2-(2-(2,6-dichloro-N-methylphenylsulfonamido)ethoxy)-N-(4-((dimethylamino)(phenyl)methyl)cyclohexyl)acetamide], the inhibition at 10 µM is 79% in experiment [1] and 83% in experiment [2].
Consider `COc1ccc(S(=O)(=O)N2CCCCC2COCC(=O)NCC2CCC(C(CCc3ccccc3)N(C)C)CC2)c(OC)c1` (stereo not drawn) [Example 420], for which, in experiment [1], the “B1R Ant. h [10 μM] % Inhibition” value is given as −7%. In addition, the “5-HT (inhibition of reuptake of serotonin, % inhibition)” value in experiment [2] (10 µM) amounted to 74%.
Take `CN(C)C(CCc1ccccc1)C1CCC(CNC(=O)COCCN(C)S(=O)(=O)c2c(Cl)cccc2Cl)CC1` (stereo not drawn) [Example 476]: the “B1R Ant. h [10 μM] % Inhibition” value in experiment [1] worked out at 103%. Also, the “5-HT (inhibition of reuptake of serotonin, % inhibition)” value in experiment [2] (10 µM) was 80%.
For `COc1ccc(S(=O)(=O)N2CCCCC2COCC(=O)NCC2CCC(C(CCc3ccccc3)N(C)C)CC2)c(OC)c1` (stereo not drawn) [Example 486] the same measures were 28% and 73%.
As for `CN(C)C(c1cccc(F)c1)C1CCC(CCNC(=O)COCCC2CCN(S(=O)(=O)c3ccccc3)CC2)CC1` (stereo not drawn) [Example 543], the “B1R Ant. h [10 μM] % Inhibition” value in experiment [1] is −31%. In addition, in experiment [2], the “5-HT (inhibition of reuptake of serotonin, % inhibition)” value was determined as 76%.
Turning to `CN(C)C(CCc1ccccc1)C1CCC(CNC(=O)COCC2CCCN(S(=O)(=O)c3ccccc3)C2)CC1` (stereo not drawn) [Example 544], in experiment [1], the “B1R Ant. h [10 μM] % Inhibition” value turned out to be 22%. In experiment [2], the “5-HT (inhibition of reuptake of serotonin, % inhibition)” value is reported as 92%.
`COc1cc(C)c(S(=O)(=O)N2CCC(OCC(=O)NCC3CCC(C(CCc4ccccc4)N(C)C)CC3)CC2)c(C)c1C` (stereo not drawn) [Example 546]: in experiment [1], the “B1R Ant. h [10 μM] % Inhibition” value is recorded as 34%. For the same molecule, the “5-HT (inhibition of reuptake of serotonin, % inhibition)” value in experiment [2] is given as 91%.
`COc1cc(C)c(S(=O)(=O)N(CCOCC(=O)NCCC2CCC(C(c3ccc(F)cc3)N(C)C)CC2)Cc2ccccc2)c(C)c1` (stereo not drawn) [Example 547]: the “B1R Ant. h [10 μM] % Inhibition” value in experiment [1] was 76%. Besides, the “5-HT (inhibition of reuptake of serotonin, % inhibition)” value in experiment [2] was 90%.
Regarding `COc1ccc(S(=O)(=O)N(C)CCOCC(=O)NC2CCC(C(c3ccc(F)cc3)N(C)C)CC2)cc1OC` (stereo not drawn) [Example 548], in experiment [1], the “B1R Ant. h [10 μM] % Inhibition” value is on record as 6%. In addition, in experiment [2], the “5-HT (inhibition of reuptake of serotonin, % inhibition)” value is 99%.
For the molecule `COc1ccc(S(=O)(=O)N(C)CCOCC(=O)NC2CCC(C(c3ccc(F)cc3)N(C)C)CC2)cc1` (stereo not drawn) [Example 549], in experiment [1], the “B1R Ant. h [10 μM] % Inhibition” value came out at 13%. In experiment [2], the “5-HT (inhibition of reuptake of serotonin, % inhibition)” value is recorded as 81%.
Regarding `COc1ccc(S(=O)(=O)N(C)CCOCC(=O)NCC2CCC(C(CCc3ccccc3)N(C)C)CC2)cc1` (stereo not drawn) [Example 550], in experiment [1], the “B1R Ant. h [10 μM] % Inhibition” value is 62%. In addition, the “5-HT (inhibition of reuptake of serotonin, % inhibition)” value in experiment [2] is recorded as 74%.
The matching figures for `COc1cc(C)c(S(=O)(=O)N2CCCC(OCC(=O)NCC3CCC(C(CCc4ccccc4)N(C)C)CC3)C2)c(C)c1C` (stereo not drawn) [Example 551]: 94% and 85%.
`CN(C)C(CCc1ccccc1)C1CCC(CNC(=O)COC2CCN(S(=O)(=O)c3cccc(C(F)(F)F)c3)C2)CC1` (stereo not drawn) [Example 552]: the “B1R Ant. h [10 μM] % Inhibition” value in experiment [1] is given as 49%. In addition, in experiment [2], the “5-HT (inhibition of reuptake of serotonin, % inhibition)” value was 90%.

What is called inhibition is the change of the read-out against control, counted positive when it falls.
